target: T1, human PRMT6 (Homo sapiens, UniProt Q96LA8); assay: PRMT6 Biochemical Assay; details: peptide substrate, 3H-SAM Flashplate assay
T1 construct: Flag-PRMT6-His; made in house; host or cells: HEK 293F cells (BacMam virus, pFastBacMam)
Text: S-adenosylmethionine (SAM), S-adenosylhomocysteine (SAH), bicine, Tween20, dimethylsulfoxide (DMSO), bovine skin gelatin (BSG), sodium butyrate and Tris(2-carboxyethyl)phosphine hydrochloride solution (TCEP) were purchased from Sigma-Aldrich at the highest level of purity possible. ^3H-SAM was purchase from American Radiolabeled Chemicals with a specific activity of 80 Ci/mmol. 384-well streptavidin Flashplates were purchased from PerkinElmer.
Peptide representative of human histone H4 residues 36-50 was synthesized with an N-terminal linker-affinity tag motif and a C-terminal amide cap by 21st Century Biochemicals. The peptide was purified by high-performance liquid chromatography (HPLC) to greater than 95% purity and confirmed by liquid chromatography mass spectrometry (LC-MS). The sequence was Biot-Ahx-[…]-amide and contained a monomethylated lysine at position 44 (SEQ ID NO.:5).
Full-length human PRMT6 (NM_018137.2) transcript clone was amplified from an HEK 293 cDNA library, incorporating a flanking 5′ sequence encoding a FLAG tag ([…]) (SEQ ID NO.:6) fused directly to Ser 2 of PRMT6 and a 3′ sequence encoding a hexa His sequence (HHHHHH) fused directly to Asp 375. The amplified gene was subcloned into pFastBacMam (Viva Biotech).
Recombinant baculovirus were generated according to Bac-to-Bac kit instructions (Life Technologies). […] Infections were carried out at 37° C. for 48 hours, harvested by centrifugation, and stored at −80° C. for purification.
Column was washed with 20 mM imidazole in the same buffer and Flag-PRMT6-His was eluted with 150 mM imidazole. Pooled fractions were dialysed against buffer Ni-A and further purified by anti-flag M2 affinity chromatography. Flag-PRMT6-His was eluted with 200 ug/ml FLAG peptide in the same buffer. Pooled fractions were dialysed in 20 mM Tris, 150 mM NaCl, 10% glycerol and 5 mM β-mercaptoethanol, pH 7.8. The purity of recovered protein was 95%.
General Procedure for PRMT6 Enzyme Assays on Peptide Substrates.
The assays were all performed in a buffer consisting of 20 mM Bicine (pH=7.6), 1 mM TCEP, 0.005% BSG, and 0.002% Tween 20, prepared on the day of use. Compounds in 100% DMSO (1 ul) were spotted into a polypropylene 384-well V-bottom plates (Greiner) using a Platemate Plus outfitted with a 384-channel head (Thermo Scientific). DMSO (1 ul) was added to Columns 11, 12, 23, 24, rows A-H for the maximum signal control and 1 ul of SAH, a known product and inhibitor of PRMT6, was added to columns 11, 12, 23, 24, rows I-P for the minimum signal control. A cocktail (40 ul) containing the PRMT6 enzyme was added by Multidrop Combi (Thermo-Fisher). The compounds were allowed to incubate with PRMT6 for 30 min at room temperature, then a cocktail (10 ul) containing SAM and peptide was added to initiate the reaction (final volume=51 ul). The final concentrations of the components were as follows: PRMT6 was 1 nM, ^3H-SAM was 200 nM, non-radiolabeled SAM was 250 nM, peptide was 75 nM, SAH in the minimum signal control wells was 1 mM, and the DMSO concentration was 2%. The assays were stopped by the addition of non-radiolabeled SAM (10 ul) to a final concentration of 400 uM, which dilutes the ^3H-SAM to a level where its incorporation into the peptide substrate is no longer detectable. 50 ul of the reaction in the 384-well polypropylene plate was then transferred to a 384-well Flashplate and the biotinylated peptides were allowed to bind to the streptavidin surface for at least 1 hour before being washed once with 0.1% Tween20 in a Biotek ELx405 plate washer. The plates were then read in a PerkinElmer TopCount plate reader to measure the quantity of ^3H-labeled peptide bound to the Flashplate surface, measured as disintegrations per minute (dpm) or alternatively, referred to as counts per minute (cpm).
Where dpm=disintegrations per minute, cmpd=signal in assay well, and min and max are the respective minimum and maximum signal controls. […]

T1 sequence (Q96LA8 with tags, fused parts or gaps): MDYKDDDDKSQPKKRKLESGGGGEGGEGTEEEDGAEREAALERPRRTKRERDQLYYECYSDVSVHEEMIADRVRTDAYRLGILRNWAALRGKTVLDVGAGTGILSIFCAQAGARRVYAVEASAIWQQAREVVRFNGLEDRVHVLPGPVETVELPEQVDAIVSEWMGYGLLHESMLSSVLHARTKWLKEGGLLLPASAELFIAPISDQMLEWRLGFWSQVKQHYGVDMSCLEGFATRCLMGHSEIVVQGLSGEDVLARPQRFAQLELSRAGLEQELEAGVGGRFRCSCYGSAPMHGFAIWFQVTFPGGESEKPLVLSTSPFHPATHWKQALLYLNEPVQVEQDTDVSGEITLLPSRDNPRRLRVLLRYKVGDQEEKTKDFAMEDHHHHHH

Row | SMILES | IC50 [nM]
1 | CNCCN(C)Cc1c[nH]nc1-c1ccc(O)nc1 [Compound 2] | 1010 to 3000
2 | CN(CCN)Cc1c[nH]nc1-c1cncc(S(C)(=O)=O)c1 [Compound 4] | 1010 to 3000
3 | Cc1cncc(-c2n[nH]cc2CN(C)CCN)c1 [Compound 6] | 3010 to 10000
4 | COc1ncc(Cl)cc1-c1n[nH]cc1CN(C)CCN [Compound 14] | 1010 to 3000
5 | COc1ccncc1-c1n[nH]cc1CN(C)CCN [Compound 16] | 101 to 1000
6 | Cc1ccncc1-c1n[nH]cc1CN(C)CCN [Compound 17] | 101 to 1000
7 | CN(CCN)Cc1c[nH]nc1-c1cncc(C#N)c1 [Compound 18] | 101 to 1000
8 | CN(CCN)Cc1c[nH]nc1-c1ccc(N2CCOCC2)nc1 [Compound 20] | 101 to 1000
9 | CC(C)CN(C)c1ccc(-c2n[nH]cc2CN(C)CCN)cn1 [Compound 21] | 101 to 1000
10 | CCN(CC)c1ccc(-c2n[nH]cc2CN(C)CCN)cn1 [Compound 24] | 101 to 1000
11 | CN(CCN)Cc1c[nH]nc1-c1ccccn1 [Compound 27] | 3010 to 10000
12 | CN(CCN)Cc1c[nH]nc1-c1cnccc1C(F)(F)F [Compound 29] | 101 to 1000
13 | CNCCN(C)Cc1c[nH]nc1-c1ccc(N(CC(C)C)CC(C)C)nc1 [Compound 31] | 1010 to 3000
14 | CNCCN(C)Cc1c[nH]nc1-c1ccc(N(C)CC(C)C)nc1 [Compound 32, N^1-((3-(6-(isobutyl(methyl)amino)pyridin-3-yl)-1H-pyrazol-4-yl)methyl)-N^1,N^2-dimethylethane-1,2-diamine] | 101 to 1000
15 | CNCCN(C)Cc1c[nH]nc1-c1ccc(N(C)C(C)C)nc1 [Compound 33, N^1-((3-(6-(isopropyl(methyl)amino)pyridin-3-yl)-1H-pyrazol-4-yl)methyl)-N^1,N^2-dimethylethane-1,2-diamine] | 101 to 1000
16 | CCN(CCC(C)C)c1ccc(-c2n[nH]cc2CN(C)CCNC)cn1 [Compound 34, N^1-((3-(6-(ethyl(isopentyl)amino)pyridin-3-yl)-1H-pyrazol-4-yl)methyl)-N^1,N^2-dimethylethane-1,2-diamine] | 101 to 1000
17 | CNCCN(C)Cc1c[nH]nc1-c1ccc(OCC(C)C)nc1 [Compound 35, N^1-((3-(6-iso-butoxypyridin-3-yl)-1H-pyrazol-4-yl)methyl)-N^1,N^2-dimethylethane-1,2-diamine] | ≤ 100
18 | CCN(CC(C)C)c1ccc(-c2n[nH]cc2CN(C)CCNC)cn1 [Compound 36] | 1010 to 3000

The next lines start with the values.

Row | IC50 [nM] | SMILES
19 | ≤ 100 | CNCCN(C)Cc1c[nH]nc1-c1cccnc1 [Compound 1]
20 | ≤ 100 | CNCCN(C)Cc1c[nH]nc1-c1ccc(N)nc1 [Compound 3]
21 | ≤ 100 | COc1ccc(-c2n[nH]cc2CN(C)CCN)cn1 [Compound 5]
22 | ≤ 100 | CN(CCN)Cc1c[nH]nc1-c1cncc(F)c1 [Compound 7]
23 | ≤ 100 | CN(CCN)Cc1c[nH]nc1-c1cccnc1 [Compound 8]
24 | ≤ 100 | CN(CCN)Cc1c[nH]nc1-c1ccncc1 [Compound 9]
25 | ≤ 100 | Cc1cc(-c2n[nH]cc2CN(C)CCN)cnc1Cl [Compound 10]
26 | ≤ 100 | COc1cc(-c2n[nH]cc2CN(C)CCN)ccn1 [Compound 11]
27 | 101 to 1000 | COc1cc(-c2n[nH]cc2CN(C)CCN)c(Cl)cn1 [Compound 12]
28 | ≤ 100 | CN(CCN)Cc1c[nH]nc1-c1ccc(C(F)(F)F)nc1 [Compound 13, N^1-methyl-N^1-((3-(6-(trifluoromethyl)pyridin-3-yl)-1H-pyrazol-4-yl)methyl)ethane-1,2-diamine]
29 | 101 to 1000 | COc1ncccc1-c1n[nH]cc1CN(C)CCN [Compound 15]
30 | ≤ 100 | CN(CCN)Cc1c[nH]nc1-c1cncc(Cl)c1 [Compound 19]
31 | ≤ 100 | CC(C)Oc1ccc(-c2n[nH]cc2CN(C)CCN)cn1 [Compound 22]
32 | ≤ 100 | CN(CCN)Cc1c[nH]nc1-c1ccc(N(C)Cc2ccccc2)nc1 [Compound 23]
33 | ≤ 100 | CN(CCN)Cc1c[nH]nc1-c1ccc(NCc2ccccc2)nc1 [Compound 25]
34 | ≤ 100 | CC(C)CNc1ccc(-c2n[nH]cc2CN(C)CCN)cn1 [Compound 26]
35 | ≤ 100 | CN(CCN)Cc1c[nH]nc1-c1ccc(C#N)nc1 [Compound 28, 5-(4-(((2-aminoethyl)(methyl)amino)methyl)-1H-pyrazol-3-yl)picolinonitrile]
36 | ≤ 100 | CNCCN(C)Cc1c[nH]nc1-c1ccc(N(C)CCC(C)C)nc1 [Compound 30]
